Tested on: α-L-rhamnosidase from Penicillium sp. DSM 6826
Test: Influence of different substances on the activity of the purified α-L-rhamnosidase
Assay type: biochemical
Settings: control = 100
Protocol: p-Nitrophenyl-α-L-rhamnopyranoside is used as the substrate for detecting the α-L-rhamnosidase activity. 10 mg of this substrate are dissolved in 10 ml of ammonium acetate buffer (pH 5.5, 50 mM). 100 μl of culture filtrate or cell lysates are added to 900 μl of this solution and the mixture is then incubated at 40° C. After 0, 3, 6, 9 and 12 minutes, 200 μl are removed and mixed with 800 μl of 200 mM borate buffer, pH 9. The release-of p-nitrophenol is monitored photometrically at 410 nm; naringinase (following Romero et al. Anal. Biochem. 149 566-571 (1985)) was used as the control.
The investigations summarized in the table below were carried out using the purified enzyme.

How did the “% activity” value (substance at 0.5 M) turn out when `C[C@@H]1OC(O)[C@H](O)[C@H](O)[C@H]1O` (single isomer, unassigned) [L-Rhamnose, 6-deoxy-L-mannose] was run?
Its value is 51%.

What about the “% activity” value (substance at 1.0 M) of the same compound?
Its value is 39.5%.

And the “% activity” value (substance at 1.5 M)?
The value was 26.4%.

Which “% activity” value (substance at 20 mM) does the source give for `[Ca+2].[Cl-].[Cl-]` [CaCl2] here?
The value was 127%.

`[Cl-].[Cl-].[Co+2]` [CoCl2] was tested. Which “% activity” value (substance at 2 mM) did it give?
Its value is 41%.

How did the “% activity” value (substance at 2 mM) turn out when `[Cl-].[Cs+]` [CsCl] was run?
Its value is 96%.

Which “% activity” value (substance at 0.5 mM) does the source give for `[Cl][Cu][Cl]` [CuCl2] here?
The value was 40%.

For `O=C(O)CN(CCN(CC(=O)O)CC(=O)O)CC(=O)O` [EDTA, reference compound], which “% activity” value (substance at 10 mM) is on record?
The value was 22%.

With `O=C(O)CN(CCOCCOCCN(CC(=O)O)CC(=O)O)CC(=O)O` [EGTA, reference compound] as the compound, how does the “% activity” value (substance at 10 mM) read?
The value was 60%.

For `O=S(=O)([O-])[O-].[Fe+2]` [FeSO4], which “% activity” value (substance at 0.5 mM) is on record?
Its value is 100%.

Which “% activity” value (substance at 100 mM) does the source give for `[Cl-].[K+]` [KCl] here?
Its value is 69%.

`O=S(=O)([O-])[O-].[Mg+2]` [MgSO4] was tested. Which “% activity” value (substance at 2 mM) did it give?
The value was 106%.

With `[Cl][Mn][Cl]` [MnCl2] as the compound, how does the “% activity” value (substance at 2 mM) read?
Its value is 27%.

For `[Cl-].[Cl-].[Zn+2]` [ZnCl2], which “% activity” value (substance at 2 mM) is on record?
Its value is 65%.

Source: patent publication US5641659A, “α-l-rhamnosidase for obtaining rhamnose, a process for its preparation and its use” (priority 1992, dated 1997)
